According to patent US9433596B2, “Pharmaceutical composition comprising N-acetyl-L-cysteine or its derivatives for treating anxiety disorder” (SNU R&DB FOUNDATION, priority 2010, dated 2016):

Assays:
Sprague-Dawley Rats [1] = assay: Fear memory renewal test, NAC administered during extinction training (exposure therapy); assay type: in vivo; settings: NAC 200 mg/kg peritoneally once a day, days 3 to 5 after conditioning, 2.5 hours before exposure therapy, renewal tests on day 12 and day 21, vs saline control
Description: Sprague-Dawley Rats (8-9 weeks old, from Samtaco, Korea) were maintained with free access to water and food with 12 hour dark/light cycles (lights off at 09:00 hrs). Group of three to six animals were used for each experiment. (26 in total) For fear conditioning, the rats were presented with a tone (2.8 kHz, 85 dB) co-terminating with an electrical shock (1.0 mA, 1 s) three times at an interval of 100 sec. The rats were returned to the cage 1 minute after the last shock has been applied. Three days after the conditioning, the exposure therapy was done in a chamber distinct from the conditioning chamber for both extinction training and tone tests. 10 tones were presented at an interval of 100 sec without shocks, during which the freezing responses were measured to determine the reduction of fear memories. Unpaired, two-tailed T-test was used to analyze the results. […] The negative control was only received physiological saline. The renewal test was done on day 12 after the conditioning was completed. The same chamber and place as it was used for the fear conditioning were used for the renewal. […] The fear memory recalled was determined by measuring the freezing response as described before (Kim et al., 2007, PNAS 104 (52): 20955-960). The freezing was defined as immobility except for respiratory movements and was quantified by trained observers who were blind to the experimental groups. […]

Sprague-Dawley Rats [2] = assay: Fear memory renewal test, NAC administered one day before the renewal test; assay type: in vivo; settings: NAC 200 mg/kg peritoneally on the 7th day after 4 days of extinction training, result on the 9th day after fear conditioning, vs control
Description: Sprague-Dawley Rats (8-9 weeks old, from Samtaco, Korea) were maintained with free access to water and food with 12 hour dark/light cycles (lights off at 09:00 hrs). Group of three to six animals were used for each experiment. (26 in total) For fear conditioning, the rats were presented with a tone (2.8 kHz, 85 dB) co-terminating with an electrical shock (1.0 mA, 1 s) three times at an interval of 100 sec. The rats were returned to the cage 1 minute after the last shock has been applied. Three days after the conditioning, the exposure therapy was done in a chamber distinct from the conditioning chamber for both extinction training and tone tests. 10 tones were presented at an interval of 100 sec without shocks, during which the freezing responses were measured to determine the reduction of fear memories. Unpaired, two-tailed T-test was used to analyze the results. The renewal test was done on day 12 after the conditioning was completed. The same chamber and place as it was used for the fear conditioning were used for the renewal. The rats with the extinction training were placed in the conditioning chamber and were left undisturbed for 10 minutes. Then the fear memory was recalled by presenting the rats with a tone for 30 sec. […] The freezing was defined as immobility except for respiratory movements and was quantified by trained observers who were blind to the experimental groups. […]

[3] = cited from earlier work
[4] = general statement, no test described; cited from earlier work
Sprague-Dawley Rats [5] = assay: Fear memory renewal test, NAC administered immediately before the renewal test; assay type: in vivo; settings: NAC 200 mg/kg peritoneally 2.5 hours before the renewal test on the 7th and 8th day, result on the 8th day after fear conditioning, vs control
Description: Sprague-Dawley Rats (8-9 weeks old, from Samtaco, Korea) were maintained with free access to water and food with 12 hour dark/light cycles (lights off at 09:00 hrs). Group of three to six animals were used for each experiment. (26 in total) For fear conditioning, the rats were presented with a tone (2.8 kHz, 85 dB) co-terminating with an electrical shock (1.0 mA, 1 s) three times at an interval of 100 sec. The rats were returned to the cage 1 minute after the last shock has been applied. Three days after the conditioning, the exposure therapy was done in a chamber distinct from the conditioning chamber for both extinction training and tone tests. 10 tones were presented at an interval of 100 sec without shocks, during which the freezing responses were measured to determine the reduction of fear memories. Unpaired, two-tailed T-test was used to analyze the results. The renewal test was done on day 12 after the conditioning was completed. The same chamber and place as it was used for the fear conditioning were used for the renewal. […] The fear memory recalled was determined by measuring the freezing response as described before (Kim et al., 2007, PNAS 104 (52): 20955-960). The freezing was defined as immobility except for respiratory movements and was quantified by trained observers who were blind to the experimental groups. […]

## CC(=O)N[C@@H](CS)C(=O)O [NAC, N-acetyl-L-cysteine]
Sprague-Dawley Rats [1]; FIG. 2
  renewal of the fear memory (freezing response): the renewal of the fear memory was blocked
Sprague-Dawley Rats [1]; FIG. 2, listed as N-Acetyl-L-cysteine
  renewal of the fear memory (freezing response): the return of fear-memories was prevented and the effect was long-lasted
Sprague-Dawley Rats [2]; FIG. 4
  renewal of the fear memory (freezing response): the renewal of the fear memory was blocked
Sprague-Dawley Rats [2]; FIG. 4, listed as N-Acetyl-L-cysteine
  renewal of the fear memory (freezing response): the return of fear-memories was prevented
[3]
  pKa: 3.24
[4]
  blood-brain barrier penetration: penetrate a blood-brain barrier
Sprague-Dawley Rats [5]; FIG. 6
  renewal of the fear memory (freezing response): the renewal of the fear memory was blocked
Sprague-Dawley Rats [5]; FIG. 6, listed as N-Acetyl-L-cysteine
  renewal of the fear memory (freezing response): prevented the return of fear-memories
